Assay results as given in patent publication US20200155687A1, “METHODS OF TREATMENT USING AN A[…]” (Shire Pharmaceuticals Inc., priority 2017, published 2020).

How the values were obtained:
rats = test: motor activity in rats after PO, IV or IN administration; assay type: in vivo; details: rat; for increase in activity: IV; for activity levels compared to controls: single IN dose
Description: The pharmacodynamic properties of 1-homoarginine-d-amphetamine dihydrochloride in rats were evaluated and compared to lisdexamfetamine dimesylate and vehicle control after oral (PO), intravenous (IV) and intranasal (IN) administration.
The activity levels of rats after a single IN dose of 1-homoarginine-d-amphetamine dihydrochloride (5.25 mg/kg) was not increased when compared to controls.

[1] = target: human recombinant dopamine transporter (Homo sapiens, UniProt Q01959); test: in vitro radioligand binding study, dopamine transporter; details: intact prodrug, up to 10 μM
human recombinant dopamine transporter, sequence (Q01959 whole entry): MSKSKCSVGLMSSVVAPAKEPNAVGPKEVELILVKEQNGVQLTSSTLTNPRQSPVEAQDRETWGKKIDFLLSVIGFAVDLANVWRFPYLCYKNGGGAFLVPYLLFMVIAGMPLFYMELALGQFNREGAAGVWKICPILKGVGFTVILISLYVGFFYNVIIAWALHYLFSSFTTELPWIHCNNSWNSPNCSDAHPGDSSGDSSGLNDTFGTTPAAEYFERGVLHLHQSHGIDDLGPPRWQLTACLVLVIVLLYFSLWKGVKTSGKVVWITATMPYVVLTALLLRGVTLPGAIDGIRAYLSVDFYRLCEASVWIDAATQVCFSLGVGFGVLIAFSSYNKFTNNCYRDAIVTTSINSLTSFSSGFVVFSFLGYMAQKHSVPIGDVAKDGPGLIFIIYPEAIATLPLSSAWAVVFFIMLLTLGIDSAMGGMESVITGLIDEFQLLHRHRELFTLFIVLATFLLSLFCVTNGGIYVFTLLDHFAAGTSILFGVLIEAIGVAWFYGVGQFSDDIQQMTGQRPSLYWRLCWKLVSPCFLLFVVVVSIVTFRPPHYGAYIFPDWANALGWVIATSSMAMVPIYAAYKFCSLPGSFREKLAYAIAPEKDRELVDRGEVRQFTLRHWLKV
Description: (§1) Therefore, there is no direct interaction by 1-homoarginine-d-amphetamine dihydrochloride with primary targets critical for the pharmacological effects of d-amphetamine.

α2-adrenergic receptor [2] = test: general side-effect profile panel (receptors, transporters, ion channels, enzymes); assay type: binding
Description: (§2) In a general side-effect profile panel using a wide range of receptors, transporters, ion channels, enzymes and other biological targets that could directly or indirectly influence dopaminergic or noradrenergic neurotransmission in the brain, initial results indicated some 1-homoarginine-d-amphetamine dihydrochloride activity at the α2-adrenergic receptor. However, after completion of a confirmatory half maximal inhibitory concentration (IC50) assay, it was determined that it is unlikely that 1-homoarginine-d-amphetamine dihydrochloride would cause any side-effects related to any of the common enzymes/receptors.

[3] = target: human recombinant norepinephrine transporter (Homo sapiens, UniProt P23975); test: in vitro radioligand binding study, norepinephrine transporter; details: intact prodrug, up to 10 μM
human recombinant norepinephrine transporter, sequence (P23975 whole entry): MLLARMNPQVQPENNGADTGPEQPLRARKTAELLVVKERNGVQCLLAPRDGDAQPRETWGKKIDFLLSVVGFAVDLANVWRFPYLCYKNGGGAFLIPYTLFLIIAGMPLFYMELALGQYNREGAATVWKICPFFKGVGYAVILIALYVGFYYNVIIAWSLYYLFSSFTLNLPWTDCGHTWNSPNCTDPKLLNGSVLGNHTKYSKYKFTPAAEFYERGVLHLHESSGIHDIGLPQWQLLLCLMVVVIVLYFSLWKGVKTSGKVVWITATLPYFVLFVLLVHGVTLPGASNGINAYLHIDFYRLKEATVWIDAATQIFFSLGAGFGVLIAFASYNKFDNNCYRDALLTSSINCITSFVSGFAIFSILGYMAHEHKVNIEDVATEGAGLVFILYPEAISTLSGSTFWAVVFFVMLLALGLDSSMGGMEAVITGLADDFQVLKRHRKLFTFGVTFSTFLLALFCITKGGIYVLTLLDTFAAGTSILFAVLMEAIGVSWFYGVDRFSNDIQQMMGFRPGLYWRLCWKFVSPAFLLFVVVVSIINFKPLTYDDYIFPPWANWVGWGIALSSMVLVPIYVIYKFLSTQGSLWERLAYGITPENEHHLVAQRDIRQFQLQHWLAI
Description: as §1

α2-adrenergic receptor [4] = test: confirmatory half maximal inhibitory concentration (IC50) assay; assay type: binding; details: after completion of confirmatory IC50 assay
Description: as §2

Row | Compound | increase in activity (rats; 5.05 mg/kg) [%] | activity levels compared to controls (rats; 5.05 mg/kg) | activity at the dopamine transporter site [1] | activity at the α2-adrenergic receptor (initial results) (α2-adrenergic receptor [2]) | activity at the norepinephrine transporter site [3] | likelihood of side-effects related to any of the common enzymes/receptors (α2-adrenergic receptor [4]) | increase in activity (rats; 5.25 mg/kg) | motor activity compared to the vehicle control group (rats; PO, 4.37 mg/kg) | activity levels versus lisdexamfetamine (4.21 mg/kg) comparator group (rats; PO, 4.37 mg/kg, initial three hours of the study) | activity levels compared to controls (rats; 5.25 mg/kg)
1 | lisdexamfetamine dimesylate [reference compound] | 60 | A similar result |  |  |  |  |  |  |  | 
2 | C[C@@H](Cc1ccccc1)NC(=O)[C@@H](N)CCCCNC(=N)N.Cl [1-homoarginine-d-amphetamine dihydrochloride] |  |  | no significant activity | some | no significant activity | unlikely | approximately 15% | induced an increase in motor activity | in general lower | not increased
